“Also recorded” adds a separate entry of the source. Where two headings read alike, the source gives them in different places.
Experiments:
[1] = in vivo; cited from earlier work
postsynaptic GABAARs = assay: Whole-cell currents evoked by exogenous GABA (10 μM) in cultured hippocampal neurons; format: cell-based, mice
α5GABAARs [2] = target: T1, α5GABAARs (Mus musculus, UniProt P22723+Q8BHJ7); assay: Tonic inhibitory current, whole cell voltage-clamp in cultured hippocampal neurons; format: cell-based, mice; set-up: endogenous in cells; host or cells: primary embryonic mouse hippocampal neurons, alone or co-cultured with cortical microglia; settings: for effect on the tonic current (in words): cultured hippocampal neurons; for amplitude of the tonic current: TNF-α 100 ng/ml, n=10, IL-6 10 ng/ml, n=5
T1 sequence (Q8BHJ7 32-463 limits assumed): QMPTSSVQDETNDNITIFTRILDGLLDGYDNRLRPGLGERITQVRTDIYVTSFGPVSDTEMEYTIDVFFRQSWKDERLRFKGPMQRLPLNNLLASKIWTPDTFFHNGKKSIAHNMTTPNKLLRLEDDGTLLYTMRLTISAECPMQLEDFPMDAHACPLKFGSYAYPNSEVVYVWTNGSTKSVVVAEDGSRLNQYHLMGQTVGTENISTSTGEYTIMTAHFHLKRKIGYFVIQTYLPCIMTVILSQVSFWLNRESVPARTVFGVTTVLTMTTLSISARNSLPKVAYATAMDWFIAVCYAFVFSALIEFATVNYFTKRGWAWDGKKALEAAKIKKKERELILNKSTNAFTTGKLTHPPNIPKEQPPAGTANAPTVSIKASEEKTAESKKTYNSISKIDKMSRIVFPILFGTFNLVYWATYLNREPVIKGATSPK
T1 sequence (P63080 26-473 partner): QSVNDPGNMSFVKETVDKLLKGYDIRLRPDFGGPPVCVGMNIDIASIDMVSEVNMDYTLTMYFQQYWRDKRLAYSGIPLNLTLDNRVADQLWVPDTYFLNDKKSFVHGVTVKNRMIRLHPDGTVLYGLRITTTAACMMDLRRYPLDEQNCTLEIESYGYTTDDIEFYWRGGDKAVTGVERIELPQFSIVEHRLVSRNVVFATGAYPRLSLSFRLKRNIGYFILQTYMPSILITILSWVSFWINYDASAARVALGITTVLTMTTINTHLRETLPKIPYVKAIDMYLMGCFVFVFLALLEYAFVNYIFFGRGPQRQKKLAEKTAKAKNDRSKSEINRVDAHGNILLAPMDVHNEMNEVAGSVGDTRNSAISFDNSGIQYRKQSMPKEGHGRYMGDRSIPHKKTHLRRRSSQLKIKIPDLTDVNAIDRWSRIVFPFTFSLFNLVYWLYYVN
T1 sequence (P22723 39-474): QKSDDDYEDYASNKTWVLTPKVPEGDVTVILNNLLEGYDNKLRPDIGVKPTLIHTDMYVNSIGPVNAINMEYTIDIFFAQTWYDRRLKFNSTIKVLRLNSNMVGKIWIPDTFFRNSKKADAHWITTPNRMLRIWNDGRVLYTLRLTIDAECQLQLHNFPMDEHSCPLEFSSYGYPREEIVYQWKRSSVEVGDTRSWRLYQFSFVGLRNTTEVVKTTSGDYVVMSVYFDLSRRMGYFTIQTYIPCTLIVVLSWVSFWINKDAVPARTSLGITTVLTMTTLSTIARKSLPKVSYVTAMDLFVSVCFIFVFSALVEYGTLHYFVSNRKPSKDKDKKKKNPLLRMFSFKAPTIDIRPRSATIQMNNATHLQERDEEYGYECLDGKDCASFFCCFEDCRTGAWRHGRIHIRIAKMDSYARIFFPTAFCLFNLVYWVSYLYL

α5GABAARs [3] = target: T2, α5GABAARs (Mus musculus, UniProt P22723+P63080+Q8BHJ7); settings: cited from earlier work
T2 construct: host or cells: neurons (mIPSCs and tonic current recorded); preparation not described in this paragraph
T2 sequence (Q8BHJ7 32-463 limits assumed): as the sequence (Q8BHJ7 32-463 limits assumed) above
T2 sequence (P63080 26-473): as the sequence (P63080 26-473 partner) above
T2 sequence (P22723 39-474): as the sequence (P22723 39-474) above

synaptic GABAARs = assay: Miniature inhibitory postsynaptic currents (mIPSCs) in cultured hippocampal neurons; format: cell-based, mice
[4] = rats; cited from earlier work
α5GABAARs [5] = target: T1, α5GABAARs; settings: WT mice, etomidate or etomidate plus L-655,708 30 min prior to training; cited from earlier work
α5GABAA receptors [6] = target: α5GABAA receptors (Mus musculus, UniProt P22723+Q8BHJ7); settings: for effect of the anesthetic on recognition memory, wild-type mice (in words): 24 h after anesthesia
Chain of α5GABAA receptors (Mus musculus, UniProt P22723+Q8BHJ7) (Q8BHJ7 32-463 limits assumed): as the sequence (Q8BHJ7 32-463 limits assumed) above
Chain of α5GABAA receptors (Mus musculus, UniProt P22723+Q8BHJ7) (P63080 26-473 partner): as the sequence (P63080 26-473 partner) above
Chain of α5GABAA receptors (Mus musculus, UniProt P22723+Q8BHJ7) (P22723 39-474): as the sequence (P22723 39-474) above

α5GABAA receptors [7] = target: T3, α5GABAA receptors (Homo sapiens, UniProt P18507+P31644); set-up: host or cells: human volunteers (brain in vivo); settings: human volunteers, given before ethanol; cited from earlier work
T3 sequence (P31644 32-462): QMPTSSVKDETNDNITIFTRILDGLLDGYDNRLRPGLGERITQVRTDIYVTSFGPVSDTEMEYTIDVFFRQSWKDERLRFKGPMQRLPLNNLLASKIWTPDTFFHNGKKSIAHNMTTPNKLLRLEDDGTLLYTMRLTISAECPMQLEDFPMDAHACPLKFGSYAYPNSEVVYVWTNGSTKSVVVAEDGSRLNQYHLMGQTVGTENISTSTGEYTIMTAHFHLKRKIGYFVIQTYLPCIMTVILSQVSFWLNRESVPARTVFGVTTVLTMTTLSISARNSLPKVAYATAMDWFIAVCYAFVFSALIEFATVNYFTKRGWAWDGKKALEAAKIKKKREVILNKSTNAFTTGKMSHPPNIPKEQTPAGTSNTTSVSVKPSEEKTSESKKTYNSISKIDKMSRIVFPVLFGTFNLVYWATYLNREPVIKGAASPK
T3 sequence (P28472 26-473 partner): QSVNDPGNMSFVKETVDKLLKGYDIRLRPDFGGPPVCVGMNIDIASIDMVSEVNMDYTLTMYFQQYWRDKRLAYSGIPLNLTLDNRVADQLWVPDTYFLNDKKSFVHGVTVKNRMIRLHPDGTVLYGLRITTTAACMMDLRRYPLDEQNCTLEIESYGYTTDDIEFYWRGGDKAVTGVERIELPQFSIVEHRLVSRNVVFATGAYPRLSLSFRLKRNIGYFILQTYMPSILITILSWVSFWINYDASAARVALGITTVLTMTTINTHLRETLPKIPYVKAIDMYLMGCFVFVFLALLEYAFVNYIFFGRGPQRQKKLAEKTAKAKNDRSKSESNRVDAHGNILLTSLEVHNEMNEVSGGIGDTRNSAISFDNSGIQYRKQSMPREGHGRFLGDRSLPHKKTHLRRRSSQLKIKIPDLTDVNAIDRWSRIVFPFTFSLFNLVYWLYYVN
T3 sequence (P18507 40-467 limits assumed): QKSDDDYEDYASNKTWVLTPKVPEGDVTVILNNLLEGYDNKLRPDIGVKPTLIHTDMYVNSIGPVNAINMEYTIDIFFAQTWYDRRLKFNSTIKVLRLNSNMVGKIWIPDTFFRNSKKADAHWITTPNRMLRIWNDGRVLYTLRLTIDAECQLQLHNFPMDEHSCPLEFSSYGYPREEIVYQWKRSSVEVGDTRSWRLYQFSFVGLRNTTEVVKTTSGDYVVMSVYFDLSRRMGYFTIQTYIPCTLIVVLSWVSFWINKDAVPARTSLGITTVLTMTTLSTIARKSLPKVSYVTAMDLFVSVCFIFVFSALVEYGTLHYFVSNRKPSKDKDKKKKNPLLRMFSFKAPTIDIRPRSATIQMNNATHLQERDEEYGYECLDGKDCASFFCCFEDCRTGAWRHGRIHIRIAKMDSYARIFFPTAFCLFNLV

α5GABAARs [8] = target: T1, α5GABAARs; assay: Long-term potentiation of field postsynaptic potentials in hippocampal slices; format: cell-based, mice; set-up: endogenous in cells; host or cells: primary embryonic mouse hippocampal neurons, alone or co-cultured with cortical microglia
Experimental: IL-1β could influence any of several molecular processes that regulate synaptic plasticity^50. The key question is whether α5GABAARs underlie the predominant effect of IL-1β on plasticity. Our working hypothesis is that IL-1β acts via α5GABAARs to inhibit LTP. […] After 3 hours, the mice were sacrificed and the hippocampi harvested. Extracellular field recordings were obtained with a recording electrode placed in the stratum radiatum of the CA1 subfield.
The long-term potentiation (LTP) of evoked field postsynaptic potentials (fPSPs) was studied using previously described methods^29. […] Baseline stimulation frequency was 0.05 Hz. LTP was induced in the slices with theta burst stimulation (TBS), which consisted of 10 stimulus trains at 5 Hz, with each train consisting of 4 pulses at 100 Hz. The fPSPs were monitored for 10 min before TBS and for 60 min after TBS.

[9] = pretreatment before tibial osteotomy; cited from earlier work
α5GABAARs [10] = assay: Tonic current in hippocampal neuron-microglia co-culture; format: cell-based, mice; settings: LPS 100 ng ml^−1 overnight; IL-1ra 250 ng ml^−1

## CNC(=O)c1cc2c(cn1)[nH]c1ccccc12 [FG 7142]
[1]
  convulsant / anxiogenic properties (in words): have epileptogenic and anxiogenic properties

## O=c1cc(N2CCOCC2)oc2c(-c3ccccc3)cccc12 [LY294,002]
Postsynaptic GABAARs
  effect on IL-1β inhibition of the GABA-evoked peak current (in words): completely prevented IL-1β-dependent inhibition of the GABA-evoked peak current; also recorded: alone had no effect on the GABA-evoked peak responses
α5GABAARs [2]
  effect on the tonic current (in words): had no effect on the IL-1β-induced increase in tonic current

## Cc1ncc2n1-c1ccc(Cl)cc1C(c1ccccc1F)=NC2 [Midazolam, midazolam]
α5GABAARs [3]
  increase in charge transfer for the tonic current relative to that for mIPSCs: 7-21 fold

## CCc1nc(-c2ccc(OC)cc2)[nH]c1-c1ccncc1 [SB202,474]
α5GABAARs [2]
  effect on the tonic current (in words): had no effect on the tonic current

## C[S+]([O-])c1ccc(-c2nc(-c3ccncc3)c(-c3ccc(F)cc3)[nH]2)cc1 (stereo not shown) [SB203,580]
Postsynaptic GABAARs
  effect on IL-1β inhibition of the GABA-evoked peak current (in words): had no effect on inhibition of the GABA-evoked peak current by IL-1β
α5GABAARs [2]; IL-1β 20 ng ml^−1 20 min with or without SB203,580 20 μM 30 min
  tonic current density: 1.0±0.1 pA pF^−1
α5GABAARs [2]
  effect on the tonic current (in words): completely blocked the IL-1β-induced increase in the tonic current
Synaptic GABAARs
  effect on mIPSCs (in words): did not modify IL-1β inhibition of miniature IPSCs

## FC(F)OC(F)C(F)(F)F (stereo not shown) [desflurane]
[4]
  threshold concentration that impaired memory performance during fear conditioning: 0.44%

## CCOC(=O)c1cncn1[C@H](C)c1ccccc1 [etomidate]
α5GABAARs [2]
  effect on the tonic current (in words): selectively potentiate the tonic current; also recorded: increased the amplitude of the tonic current; also recorded: produced a supra-additive increase in the tonic current
α5GABAARs [5]
  contextual fear memory, freezing score (in words): reduced the freezing score

## COc1ccc(-c2ccc(=N)n(CCCC(=O)O)n2)cc1 [gabazine]
α5GABAARs [2]
  effect on the tonic current (in words): selectively inhibits the synaptic but not tonic current

## FC(F)(F)C(Cl)Br (stereo not shown) [halothane]
[4]
  threshold concentration that impaired memory performance during fear conditioning: 0.3%

## CC(C)c1cccc(C(C)C)c1O [propofol]
α5GABAARs [3]
  increase in charge transfer for the tonic current relative to that for mIPSCs: 6-33 fold

## FCOC(C(F)(F)F)C(F)(F)F [sevoflurane]
[4]
  threshold concentration that impaired memory performance during fear conditioning: 0.3%
α5GABAA receptors [6]
  effect of the anesthetic on recognition memory, wild-type mice (in words): did not learn the task
α5GABAA receptors [6]; listed as Sevoflurane
  effect of the anesthetic on recognition memory, wild-type mice (in words): caused memory deficits 24 h after anesthesia
α5GABAA receptors [6]; 24 h after sevoflurane
  exploratory behavior during the training phase: 23.45 ± 3.88 s
  time with familiar object: 13.13±1.95
  time with novel object: 15.41±2.25
α5GABAA receptors [6]; 24 h after sevoflurane 2.3% 1 h
  discrimination ratio, short-term memory: 0.53±0.03

## Cc1cc(-c2nnc3c4ccccc4c(OCc4cn(C)nn4)nn23)no1 [α5IA]
α5GABAA receptors [7]
  ethanol-induced memory impairment (in words): reversed memory impairment for word-list learning after the ingestion of ethanol; also recorded: attenuated ethanol-induced impairment of word recall

## IL-1ra: naturally occurring IL-1 receptor antagonist that blocks the type 1 IL-1 receptor
Postsynaptic GABAARs
  effect on IL-1β inhibition of the GABA-evoked peak current (in words): this effect could be blocked by IL-1ra
α5GABAARs [8]
  effect on LTP (in words): This inhibition of LTP was abolished by incubating the slices with IL-1ra
α5GABAARs [8]; slices from LPS-treated WT mice incubated with IL-1ra 100 ng ml^−1 for 1 h, n=10
  LTP, slope of fPSPs: 126.2%±3.9%
α5GABAARs [2]
  effect on the tonic current (in words): completely blocked by IL-1ra; also recorded: alone had no effect on the tonic or synaptic currents; also recorded: completely blocked both the increase in tonic current and the reduction of synaptic current by IL-1β
[9]
  postsurgical memory deficits (in words): no memory deficits were detected
Synaptic GABAARs
  effect on mIPSCs (in words): this effect could be blocked by IL-1ra
α5GABAARs [10]
  effect on the tonic current (in words): fully reversed the enhancement of the tonic current

## IL-6: pro-inflammatory cytokine
α5GABAARs [2]
  amplitude of the tonic current: 96.3%±6.0%
  effect on the tonic current (in words): did not modify the tonic conductance in hippocampal neurons

## TNF-α
α5GABAARs [2]
  amplitude of the tonic current: 104.1%±12.1%
  effect on the tonic current (in words): did not modify the tonic conductance in hippocampal neurons
